# Where two headings read alike, the source gives them in different places.
# How the values were obtained:
# D2/3R = test system: D2/3R; parameters: method as in PMID 24325578; conditions: cited from earlier work; for Striatal SBR % change relative to control condition, Raclopride / Striatal SBR, Raclopride: 10 μM raclopride; for Striatal SBR, Control: radioligand only
# [1] = Ex vivo tissue uptake after the PET scan (gamma-counter); type: in vivo, Sprague-Dawley rats
# Experimental: After the end of the PET scans (i.e., 98 ± 8 min after tracer injection), anesthetized animals were sacrificed by heart extirpation and dissected. Samples of brain and peripheral tissues were taken. All samples were weighed, and their radioactivity was measured in a gamma-counter.
# [2] = [^18F]FBu-AMC13 0.2 nM, [^18F]FEt-AMC15 5.8 ± 1.6 nM
# [3] = 100 μM GTP, [^18F]FBu-AMC13 0.2 nM, [^18F]FEt-AMC15 5.8 ± 1.6 nM
# [4] = raclopride 1 mg/kg, after PET scan
# [5] = saline, after PET scan (98 ± 8 min p.i.)
smiles,measurement,setting,value
"Oc1ccc2c(c1)O[C@@H](CNCc1ccc(OCCCC[18F])cc1)CC2 [[^18F]FBu-AMC13, (R)-2-[(4-(4-[^18F]fluorobutoxy)benzylamino)methyl]chroman-7-ol]","Striatal SBR % change relative to control condition, Raclopride",D2/3R; [2],−88%
same,"Striatal SBR, Raclopride",D2/3R; [2],0.10 ± 0.19
same,"Striatal SBR % change relative to control condition, Raclopride",D2/3R; tracer 4.5 ± 3.6 nM,−79%
same,"Striatal SBR, Raclopride",D2/3R; tracer 4.5 ± 3.6 nM,0.04 ± 0.22
same,"Striatal SBR % change relative to control condition, GTP",D2/3R; [3],−76%
same,"Striatal SBR, GTP",D2/3R; [3],0.20 ± 0.16
same,"Striatal SBR, Control",D2/3R; [2],0.85 ± 0.23
same,"Striatal SBR, Control",D2/3R; tracer 4.5 ± 3.6 nM,0.19 ± 0.18
same,"Ex vivo uptake, Adrenal glands",[1]; RAC,32.1±3.6 SUV
same,"Ex vivo uptake, Bladder",[1]; RAC,0.59±0.26 SUV
same,"Ex vivo uptake, Bone",[1]; RAC,0.77±0.46 SUV
same,"Ex vivo uptake, Bone marrow",[1]; RAC,2.18±0.09 SUV
same,"Ex vivo uptake, Duodenum",[1]; RAC,2.70±1.37 SUV
same,"Ex vivo uptake, Heart",[1]; RAC,0.36±0.03 SUV
same,"Ex vivo uptake, Kidney",[1]; RAC,2.36±0.54 SUV
same,"Ex vivo uptake, Large intestine",[1]; RAC,0.46±0.19 SUV
same,"Ex vivo uptake, Liver",[1]; RAC,1.99±0.86 SUV
same,"Ex vivo uptake, Lung",[1]; RAC,4.26±1.02 SUV
same,"Ex vivo uptake, Muscle",[1]; RAC,0.27±0.02 SUV
same,"Ex vivo uptake, Pancreas",[1]; RAC,3.54±0.64 SUV
same,"Ex vivo uptake, Plasma",[1]; RAC,0.16±0.03 SUV
same,"Ex vivo uptake, Prostate",[1]; RAC,1.27±0.40 SUV
same,"Ex vivo uptake, Small intestine",[1]; RAC,3.21±3.67 SUV
same,"Ex vivo uptake, Small intestine content",[1]; RAC,11.0±11.4 SUV
same,"Ex vivo uptake, Spleen",[1]; RAC,2.14±0.20 SUV
same,"Ex vivo uptake, Stomach",[1]; RAC,2.19±0.67 SUV
same,"Ex vivo uptake, Submandibular gland",[1]; RAC,2.12±0.85 SUV
same,"Ex vivo uptake, Thymus",[1]; RAC,1.54±0.12 SUV
same,"Ex vivo uptake, Urine",[1]; RAC,1.51±0.95 SUV
same,"Ex vivo uptake, Adrenal glands",[1]; SAL,34.5±3.5 SUV
same,"Ex vivo uptake, Bladder",[1]; SAL,0.43±0.16 SUV
same,"Ex vivo uptake, Bone",[1]; SAL,0.73±0.47 SUV
same,"Ex vivo uptake, Bone marrow",[1]; SAL,2.31±1.19 SUV
same,"Ex vivo uptake, Duodenum",[1]; SAL,3.24±1.2 SUV
same,"Ex vivo uptake, Heart",[1]; SAL,0.50±0.25 SUV
same,"Ex vivo uptake, Kidney",[1]; SAL,3.24±0.69 SUV
same,"Ex vivo uptake, Large intestine",[1]; SAL,0.60±0.13 SUV
same,"Ex vivo uptake, Liver",[1]; SAL,1.49±0.15 SUV
same,"Ex vivo uptake, Lung",[1]; SAL,4.85±2.15 SUV
same,"Ex vivo uptake, Muscle",[1]; SAL,0.33±0.13 SUV
same,"Ex vivo uptake, Pancreas",[1]; SAL,3.78±0.41 SUV
same,"Ex vivo uptake, Plasma",[1]; SAL,0.15±0.02 SUV
same,"Ex vivo uptake, Prostate",[1]; SAL,0.95±0.17 SUV
same,"Ex vivo uptake, Small intestine",[1]; SAL,4.52±5.94 SUV
same,"Ex vivo uptake, Small intestine content",[1]; SAL,20.9±31.4 SUV
same,"Ex vivo uptake, Spleen",[1]; SAL,2.48±1.27 SUV
same,"Ex vivo uptake, Stomach",[1]; SAL,1.90±0.26 SUV
same,"Ex vivo uptake, Submandibular gland",[1]; SAL,2.01±0.53 SUV
same,"Ex vivo uptake, Thymus",[1]; SAL,2.04±0.27 SUV
same,"Ex vivo uptake, Urine",[1]; SAL,0.63±0.53 SUV
same,"Ex vivo uptake, Brainstem",[1]; [4],1.25 ± 0.14 SUV
same,"Ex vivo uptake, Cerebellum",[1]; [4],0.73 ± 0.08 SUV
same,"Ex vivo uptake, Cortex",[1]; [4],1.01 ± 0.11 SUV
same,"Ex vivo uptake, Hippocampus",[1]; [4],1.21 ± 0.06 SUV
same,"Ex vivo uptake, Mean brain uptake",[1]; [4],1.03 ± 0.11 SUV
same,"Ex vivo uptake, Olfactory bulbs",[1]; [4],0.86 ± 0.09 SUV
same,"Ex vivo uptake, Parietal bone",[1]; [4],0.70 ± 0.18 SUV
same,"Ex vivo uptake, Pituitary",[1]; [4],2.72 ± 0.77 SUV
same,"Ex vivo uptake, Rest of brain",[1]; [4],1.10 ± 0.17 SUV
same,"Ex vivo uptake, Striatum",[1]; [4],1.21 ± 0.14 SUV
same,"Ex vivo uptake, Thalamus + hypothalamus",[1]; [4],1.07 ± 0.10 SUV
same,"Ex vivo uptake, Brainstem","[1]; saline, after PET scan",1.97 ± 0.42 (2) SUV
same,"Ex vivo uptake, Cerebellum","[1]; saline, after PET scan",1.11 ± 0.29 (8) SUV
same,"Ex vivo uptake, Cortex","[1]; saline, after PET scan",1.50 ± 0.32 (7) SUV
same,"Ex vivo uptake, Hippocampus","[1]; saline, after PET scan",1.50 ± 0.25 (6) SUV
same,"Ex vivo uptake, Mean brain uptake","[1]; saline, after PET scan",1.56 ± 0.33 SUV
same,"Ex vivo uptake, Olfactory bulbs","[1]; saline, after PET scan",1.85 ± 0.64 (3) SUV
same,"Ex vivo uptake, Parietal bone","[1]; saline, after PET scan",0.61 ± 0.17 SUV
same,"Ex vivo uptake, Pituitary","[1]; saline, after PET scan",3.19 ± 0.29 SUV
same,"Ex vivo uptake, Rest of brain","[1]; saline, after PET scan",1.60 ± 0.25 (4) SUV
same,"Ex vivo uptake, Thalamus + hypothalamus","[1]; saline, after PET scan",2.07 ± 0.70 (1) SUV
same,"Ex vivo uptake, Striatum",[1]; [5],1.60 ± 0.33 (5) SUV
Oc1ccc2c(c1)O[C@@H](CNCc1ccc(OCC[18F])cc1)CC2 [[^18F]FEt-AMC13],Striatal SBR based on after-scan biodistribution measurements,[1]; 1 mg/kg raclopride,0.74 ± 0.27
same,decrease of biodistribution-based striatal SBR,"[1]; 1 mg/kg raclopride, p = 0.17",31%
same,"Ex vivo uptake, Adipose tissue",[1]; RAC,0.09±0.02 SUV
same,"Ex vivo uptake, Adrenal glands",[1]; RAC,0.59±0.20 SUV
same,"Ex vivo uptake, Bladder",[1]; RAC,0.83±0.64 SUV
same,"Ex vivo uptake, Blood cells",[1]; RAC,0.06±0.01 SUV
same,"Ex vivo uptake, Bone",[1]; RAC,0.17±0.05 SUV
same,"Ex vivo uptake, Bone marrow",[1]; RAC,2.00±3.17 SUV
same,"Ex vivo uptake, Caecum",[1]; RAC,0.63±0.84 SUV
same,"Ex vivo uptake, Duodenum",[1]; RAC,4.01±4.63 SUV
same,"Ex vivo uptake, Heart",[1]; RAC,0.16±0.02 SUV
same,"Ex vivo uptake, Kidney",[1]; RAC,0.48±0.07 SUV
same,"Ex vivo uptake, Large intestine",[1]; RAC,0.41±0.33 SUV
same,"Ex vivo uptake, Large intestine content",[1]; RAC,0.09±0.12 SUV
same,"Ex vivo uptake, Liver",[1]; RAC,1.43±0.30 SUV
same,"Ex vivo uptake, Lung",[1]; RAC,1.38±0.20 SUV
same,"Ex vivo uptake, Muscle",[1]; RAC,0.19±0.05 SUV
same,"Ex vivo uptake, Pancreas",[1]; RAC,1.47±0.32 SUV
same,"Ex vivo uptake, Plasma",[1]; RAC,0.23±0.01 SUV
same,"Ex vivo uptake, Prostate",[1]; RAC,0.40±0.26 SUV
same,"Ex vivo uptake, Small intestine",[1]; RAC,2.39±1.94 SUV
same,"Ex vivo uptake, Small intestine content",[1]; RAC,24.6±32.8 SUV
same,"Ex vivo uptake, Spleen",[1]; RAC,0.52±0.10 SUV
same,"Ex vivo uptake, Stomach",[1]; RAC,2.09±1.19 SUV
same,"Ex vivo uptake, Submandibular gland",[1]; RAC,0.28±0.06 SUV
same,"Ex vivo uptake, Testes",[1]; RAC,0.42±0.10 SUV
same,"Ex vivo uptake, Thymus",[1]; RAC,0.30±0.06 SUV
same,"Ex vivo uptake, Urine",[1]; RAC,4.40±3.88 SUV
same,"Ex vivo uptake, Whole blood",[1]; RAC,0.17±0.01 SUV
same,"Ex vivo uptake, Adipose tissue",[1]; SAL,0.30±0.42 SUV
same,"Ex vivo uptake, Adrenal glands",[1]; SAL,0.84±0.29 SUV
same,"Ex vivo uptake, Bladder",[1]; SAL,1.00±0.52 SUV
same,"Ex vivo uptake, Blood cells",[1]; SAL,0.07±0.01 SUV
same,"Ex vivo uptake, Bone",[1]; SAL,0.24±0.21 SUV
same,"Ex vivo uptake, Bone marrow",[1]; SAL,0.68±0.38 SUV
same,"Ex vivo uptake, Caecum",[1]; SAL,0.46±0.29 SUV
same,"Ex vivo uptake, Duodenum",[1]; SAL,1.15±0.25 SUV
same,"Ex vivo uptake, Heart",[1]; SAL,0.15±0.04 SUV
same,"Ex vivo uptake, Kidney",[1]; SAL,0.64±0.20 SUV
same,"Ex vivo uptake, Large intestine",[1]; SAL,0.57±0.36 SUV
same,"Ex vivo uptake, Large intestine content",[1]; SAL,0.06±0.03 SUV
same,"Ex vivo uptake, Liver",[1]; SAL,1.51±0.14 SUV
same,"Ex vivo uptake, Lung",[1]; SAL,1.67±0.41 SUV
same,"Ex vivo uptake, Muscle",[1]; SAL,0.17±0.04 SUV
same,"Ex vivo uptake, Pancreas",[1]; SAL,1.31±0.31 SUV
same,"Ex vivo uptake, Plasma",[1]; SAL,0.22±0.04 SUV
same,"Ex vivo uptake, Prostate",[1]; SAL,0.62±0.18 SUV
same,"Ex vivo uptake, Small intestine",[1]; SAL,3.15±2.00 SUV
same,"Ex vivo uptake, Small intestine content",[1]; SAL,54.2±57.7 SUV
same,"Ex vivo uptake, Spleen",[1]; SAL,0.46±0.05 SUV
same,"Ex vivo uptake, Stomach",[1]; SAL,1.36±0.35 SUV
same,"Ex vivo uptake, Submandibular gland",[1]; SAL,0.36±0.12 SUV
same,"Ex vivo uptake, Testes",[1]; SAL,0.40±0.06 SUV
same,"Ex vivo uptake, Thymus",[1]; SAL,0.32±0.06 SUV
same,"Ex vivo uptake, Urine",[1]; SAL,11.0±9.5 SUV
same,"Ex vivo uptake, Whole blood",[1]; SAL,0.16±0.03 SUV
same,"Ex vivo uptake, Brainstem",[1]; [4],0.16 ± 0.04 SUV
same,"Ex vivo uptake, Cerebellum",[1]; [4],0.13 ± 0.02 SUV
same,"Ex vivo uptake, Cortex",[1]; [4],0.16 ± 0.04 SUV
same,"Ex vivo uptake, Hippocampus",[1]; [4],0.23 ± 0.08 SUV
same,"Ex vivo uptake, Mean brain uptake",[1]; [4],0.16 ± 0.04 SUV
same,"Ex vivo uptake, Olfactory bulbs",[1]; [4],0.15 ± 0.04 SUV
same,"Ex vivo uptake, Parietal bone",[1]; [4],0.10 ± 0.01 SUV
same,"Ex vivo uptake, Pituitary",[1]; [4],0.59 ± 0.20 SUV
same,"Ex vivo uptake, Rest of brain",[1]; [4],0.18 ± 0.03 SUV
same,"Ex vivo uptake, Striatum",[1]; [4],0.23 ± 0.08 SUV
same,"Ex vivo uptake, Thalamus + hypothalamus",[1]; [4],0.19 ± 0.05 SUV
same,Striatal SBR based on after-scan biodistribution measurements,[1]; saline pre-treated,1.07 ± 0.10
same,"Ex vivo uptake, Brainstem","[1]; saline, after PET scan",0.18 ± 0.02 (6) SUV
same,"Ex vivo uptake, Cerebellum","[1]; saline, after PET scan",0.13 ± 0.01 (8) SUV
same,"Ex vivo uptake, Cortex","[1]; saline, after PET scan",0.18 ± 0.01 (5) SUV
same,"Ex vivo uptake, Hippocampus","[1]; saline, after PET scan",0.22 ± 0.02 (2) SUV
same,"Ex vivo uptake, Mean brain uptake","[1]; saline, after PET scan",0.18 ± 0.01 SUV
same,"Ex vivo uptake, Olfactory bulbs","[1]; saline, after PET scan",0.17 ± 0.01 (7) SUV
same,"Ex vivo uptake, Parietal bone","[1]; saline, after PET scan",0.10 ± 0.01 SUV
same,"Ex vivo uptake, Pituitary","[1]; saline, after PET scan",0.76 ± 0.08 SUV
same,"Ex vivo uptake, Rest of brain","[1]; saline, after PET scan",0.20 ± 0.02 (3) SUV
same,"Ex vivo uptake, Thalamus + hypothalamus","[1]; saline, after PET scan",0.19 ± 0.003 (4) SUV
same,"Ex vivo uptake, Striatum",[1]; [5],0.28 ± 0.03 (1) SUV
